Experiments:
[1] = DNDI: Cytotoxicity against L-6 rat myoblasts from skeletal muscle cells; settings: L6 rat skeletal muscle myoblast cells
Trypanosoma cruzi [2] = assay: microbe, parasite or virus in culture; format: functional, organism-based, Tulahuen LacZ, Clone C4; settings: Trypanosoma cruzi, Tulahuen LacZ, Clone C4
Trypanosoma cruzi [3] = assay: microbe, parasite or virus in culture; format: functional, Tulahuen LacZ, Clone C4; settings: Trypanosoma cruzi, Tulahuen LacZ, Clone C4

Row | Compound | IC50 (Trypanosoma cruzi [2]) [µM] | IC90 (Trypanosoma cruzi [3]) [µM] | IC50 ([1]; IC50) [µM] | IC50 [1] [µM]
1 | COc1cncc(N2CCC(NC(c3ccc(Cl)cc3)c3cccnc3)CC2)c1 (stereo unspecified) | 0.042 | 0.096 | 58.9 | –
2 | Fc1cc(Cl)ccc1C(NC1CCN(c2ccc(Cl)cc2)CC1)c1cccnc1 (stereo unspecified) | 0.0075 | 0.025 | 47.2 | –
3 | Cn1cc(CN2CCC(NC(c3ccc(Cl)cc3)c3cccnc3)CC2)c(C(F)(F)F)n1 (stereo unspecified) | 0.052 | 0.085 | 51.3 | –
4 | CCn1cc(C(NC2CCN(c3ccc(C(F)(F)F)cc3)CC2)c2cccnc2)cn1 (stereo unspecified) | 0.0535 | 0.092 | > 100 | –
5 | Clc1ccc(C(NC2CCN(c3ccc(Br)cn3)CC2)c2cccnc2)cc1 (stereo unspecified) | 0.0257 | 0.084 | 61.8 | –
6 | FC(F)(F)c1ccc(N(CC2CCN(c3ccc(Cl)cc3)CC2)c2cccnc2)cc1 | 0.019 | 0.041 | 76.3 | –
7 | CC(O)C(C)N1CCC(NC(c2ccc(Cl)cc2)c2cccnc2)CC1 (stereo unspecified) | 1.81 | 3.16 | > 100 | –
8 | Fc1cc(Cl)ccc1C(NC1CCN(c2ccc(OC(F)(F)F)cc2)CC1)c1cccnc1 (stereo unspecified) | 0.008 | 0.024 | 48 | –
9 | FC(F)(F)c1ccc(C(c2cccnc2)N2CCC(Oc3ccccc3Cl)CC2)cc1 (stereo unspecified) | 0.041 | 0.093 | 60.1 | –
10 | CC(C)(C)OC(=O)N1CCC(CN(c2ccc(C(F)(F)F)cc2)c2cccnc2)CC1 | 0.028 | 0.067 | 51.7 | –
11 | FC(F)(F)c1ccc(N2CCC(NC(c3cccnc3)c3cnn(Cc4ccccc4)c3)CC2)cc1 (stereo unspecified) | 0.006 | 0.011 | 51.6 | –
12 | O=C(c1ccccc1)N1CCC(CN(c2ccc(C(F)(F)F)cc2)c2cccnc2)CC1 | 0.043 | 0.086 | 51.4 | –
13 | CCn1cc(C(NC2CCN(c3ccc(F)c(F)c3)CC2)c2cccnc2)cn1 (stereo unspecified) | 0.099 | 0.328 | 62.3 | –
14 | CS(=O)(=O)c1ccc(N2CCC(NC(c3cccnc3)c3cnn(CC(F)(F)F)c3)CC2)cc1 (stereo unspecified) | 4.16 | > 10 | > 100 | –
15 | Clc1ccc(CN2CCC(NC(c3ccc(Cl)cc3)c3cccnc3)CC2)cc1 (stereo unspecified) | 0.066 | 0.098 | 20.3 | –
16 | FC(F)(F)c1ccc(N2CCC(NC(c3ccc(Cl)cc3)c3cccnc3)CC2)cc1 (stereo unspecified) | 0.011 | 0.0275 | 53.5 | –
17 | CC(C)(O)CN1CCC(NC(c2ccc(Cl)cc2)c2cccnc2)CC1 (stereo unspecified) | 0.565 | 1.02 | > 100 | –
18 | NC(=O)c1cccc(N2CCC(NC(c3cccnc3)c3ccc(Cl)cc3F)CC2)c1 (stereo unspecified) | 0.0715 | > 0.1 | > 100 | –
19 | CC(C)C(CO)N1CCC(NC(c2ccc(Cl)cc2)c2cccnc2)CC1 (stereo unspecified) | 0.062 | > 0.1 | > 100 | –
20 | FC(F)(F)Cn1cc(C(NC2CCN(c3ccc(OC(F)(F)F)cc3)CC2)c2cccnc2)cn1 (stereo unspecified) | 0.065 | > 0.1 | 66.6 | –
21 | Fc1ccc(N2CCC(NC(c3cccnc3)c3ccc(Cl)cc3F)CC2)c(C(F)(F)F)c1 (stereo unspecified) | 0.032 | 0.05 | 58.9 | –
22 | CC(=O)C(C)N1CCC(NC(c2ccc(Cl)cc2)c2cccnc2)CC1 (stereo unspecified) | 0.0423 | 0.076 | 87.7 | –

Row | Compound | IC50 (Trypanosoma cruzi [2]) [µM] | IC90 (Trypanosoma cruzi [3]) [µM] | IC50 ([1]; IC50) [µM] | IC50 [1] [µM]
23 | O=C(NC1CCN(C(c2ccc(C(F)(F)F)cc2)c2cccnc2)CC1)c1ccccc1C(F)(F)F (stereo unspecified) | 0.006 | 0.01 | > 100 | –
24 | FC(F)(F)Cn1cc(C(NC2CCN(c3ccc(C(F)(F)F)cc3)CC2)c2cccnc2)cn1 (stereo unspecified) | 0.046 | 0.088 | 71.2 | –
25 | Fc1ccc(N2CCC(NC(c3ccc(Cl)cc3)c3cccnc3)CC2)cc1C(F)(F)F (stereo unspecified) | 0.024 | 0.063 | 52.3 | –
26 | N#Cc1ccccc1OC1CCN(C(c2ccc(C(F)(F)F)cc2)c2cccnc2)CC1 (stereo unspecified) | 0.048 | 0.09 | 57.8 | –
27 | CSc1ccc(N2CCC(NC(c3ccc(Cl)cc3)c3cccnc3)CC2)cc1 (stereo unspecified) | 0.007 | 0.019 | 30.2 | –
28 | Fc1cc(Cl)ccc1C(NC1CCN(Cc2ccc(Cl)cc2Cl)CC1)c1cccnc1 (stereo unspecified) | 0.039 | 0.092 | 43 | –
29 | CC(C)n1cc(C(NC2CCN(c3ccc(C(F)(F)F)cc3)CC2)c2cccnc2)cn1 (stereo unspecified) | 0.029 | 0.081 | 77 | –
30 | Fc1ccc(OC2CCN(C(c3ccc(C(F)(F)F)cc3)c3cccnc3)CC2)cc1 (stereo unspecified) | 0.021 | 0.03 | 23.8 | –
31 | Fc1cnc(N2CCC(NC(c3ccc(Cl)cc3)c3cccnc3)CC2)nc1 (stereo unspecified) | 0.034 | 0.088 | 58.2 | –
32 | CC(c1ccc(C(F)(F)F)cc1)N1CCC(NC(c2cccnc2)c2ccc(Cl)cc2F)CC1 (stereo unspecified) | 0.075 | > 0.1 | 19.5 | –
33 | Fc1ccccc1N1CCC(NC(c2ccc(C(F)(F)F)cc2)c2cccnc2)CC1 (stereo unspecified) | 0.017 | 0.0305 | 53.1 | –
34 | Cc1noc(C)c1C(=O)N1CCC(CN(c2ccc(C(F)(F)F)cc2)c2cccnc2)CC1 | 0.086 | > 0.1 | 72.4 | –
35 | Fc1cc(Cl)cc(N2CCC(NC(c3cccnc3)c3ccc(Cl)cc3F)CC2)c1 (stereo unspecified) | 0.019 | 0.05 | 53.1 | –
36 | N#Cc1cnc(N2CCC(NC(c3ccc(Cl)cc3)c3cccnc3)CC2)s1 (stereo unspecified) | 0.017 | 0.025 | 48.6 | –
37 | CCn1cc(C(NC2CCN(c3ccc(S(C)(=O)=O)cc3)CC2)c2cccnc2)cn1 (stereo unspecified) | 6.04 | > 10 | > 100 | –
38 | CCC(C(C)O)N1CCC(NC(c2ccc(Cl)cc2)c2cccnc2)CC1 (stereo unspecified) | 0.23 | 0.6 | > 100 | –
39 | Fc1cc(Cl)ccc1C(NC1CCN(c2nc3ccccc3s2)CC1)c1cccnc1 (stereo unspecified) | 0.265 | 0.57 | > 100 | –
40 | CC(c1ccccc1)N1CCC(NC(c2cccnc2)c2ccc(Cl)cc2F)CC1 (stereo unspecified) | 0.314 | 0.597 | 19.1 | –
41 | COc1ccc(CN2CCC(NC(c3cccnc3)c3ccc(Cl)cc3F)CC2)cc1 (stereo unspecified) | 0.37 | 4.38 | 52 | –
42 | CO/C=C(/C(=O)OC)c1ccccc1Oc1cc(Oc2ccccc2C#N)ncn1 [AZOXYSTROBIN] | 3.26 | 8.68 | – | 50.3
43 | CC1=C(C(=O)Nc2ccccc2)SCCO1 [CARBOXIN] | 22.4 | 57.5 | – | > 100

Further compounds by falling IC50 (Trypanosoma cruzi [2]), results first:

Row | IC50 (Trypanosoma cruzi [2]) [µM] | IC90 (Trypanosoma cruzi [3]) [µM] | Compound | IC50 ([1]; IC50) [µM] | IC50 [1] [µM]
44 | 3.06 | 8.66 | CC(C)(C)N1CCC(NC(c2ccc(Cl)cc2)c2cccnc2)CC1 (stereo unspecified) | > 100 | –
45 | 0.103 | 0.298 | CCn1cc(C(NC2CCN(c3ccc(OC(F)(F)F)cc3)CC2)c2cccnc2)cn1 (stereo unspecified) | 73.9 | –
46 | 0.102 | 0.249 | Cn1cc(C(NC2CCN(c3ccc(C(F)(F)F)cc3)CC2)c2cccnc2)cn1 (stereo unspecified) | > 100 | –
47 | 0.076 | > 0.1 | NC(=O)c1ccccc1N1CCC(NC(c2cccnc2)c2ccc(Cl)cc2F)CC1 (stereo unspecified) | 71.8 | –
48 | 0.062 | > 0.09 | Fc1ccccc1OC1CCN(C(c2ccc(C(F)(F)F)cc2)c2cccnc2)CC1 (stereo unspecified) | 67.8 | –
49 | 0.06 | 0.086 | N#Cc1ccnc(N2CCC(NC(c3ccc(Cl)cc3)c3cccnc3)CC2)n1 (stereo unspecified) | 57.1 | –
50 | 0.059 | > 0.1 | FC(F)(F)c1ccc(C(c2cccnc2)N2CCC(Oc3cccc(Cl)c3)CC2)cc1 (stereo unspecified) | 61.2 | –
51 | 0.048 | 0.093 | Fc1cc(Cl)ccc1C(NC1CCN(Cc2ccc(C(F)(F)F)cc2)CC1)c1cccnc1 (stereo unspecified) | 26.6 | –
52 | 0.036 | 0.095 | O=S(=O)(c1ccc(C(F)(F)F)cc1)N1CCC(NC(c2cccnc2)c2ccc(Cl)cc2F)CC1 (stereo unspecified) | 18 | –
53 | 0.035 | 0.076 | Clc1ccc(C(NC2CCN(c3ccc(Cl)cn3)CC2)c2cccnc2)cc1 (stereo unspecified) | 66.8 | –
54 | 0.032 | 0.0935 | Fc1cnc(N2CCC(NC(c3cccnc3)c3ccc(Cl)cc3F)CC2)nc1 (stereo unspecified) | 73.3 | –
55 | 0.0285 | 0.072 | Fc1ccc(N2CCC(NC(c3cccnc3)c3ccc(Cl)cc3F)CC2)cc1Cl (stereo unspecified) | 54.5 | –
56 | 0.0265 | > 0.1 | FC(F)(F)c1ccc(C(c2cccnc2)N2CCC(Oc3ccccc3)CC2)cc1 (stereo unspecified) | 54.4 | –
57 | 0.0256 | 0.064 | Fc1cc(Cl)ccc1C(NC1CCN(c2ccc(F)c(C(F)(F)F)c2)CC1)c1cccnc1 (stereo unspecified) | 58.6 | –
58 | 0.0225 | 0.063 | Fc1cc(Cl)ccc1C(NC1CCN(c2nccc(C(F)(F)F)n2)CC1)c1cccnc1 (stereo unspecified) | 55.4 | –
59 | 0.021 | 0.0445 | N#Cc1cnc(N2CCC(NC(c3cccnc3)c3ccc(Cl)cc3F)CC2)s1 (stereo unspecified) | 55.7 | –
60 | 0.0207 | 0.047 | N#Cc1cc(N2CCC(NC(c3cccnc3)c3ccc(Cl)cc3F)CC2)ccc1F (stereo unspecified) | 38.4 | –
61 | 0.0198 | 0.035 | Fc1cc(Cl)ccc1N1CCC(NC(c2ccc(Cl)cc2)c2cccnc2)CC1 (stereo unspecified) | 56.7 | –
62 | 0.019 | 0.053 | Fc1ccc(N2CCC(NC(c3cccnc3)c3ccc(Cl)cc3F)CC2)cc1 (stereo unspecified) | 55.4 | –
63 | 0.019 | 0.047 | CC(C)(C)c1cc(N2CCC(NC(c3ccc(Cl)cc3)c3cccnc3)CC2)[nH]n1 (stereo unspecified) | 50.2 | –
64 | 0.017 | 0.0645 | Fc1cc(Cl)ccc1C(NC1CCN(c2ccccc2C(F)(F)F)CC1)c1cccnc1 (stereo unspecified) | 57 | –
65 | 0.016 | 0.0365 | Cn1cc(C(=O)NC2CCN(C(c3ccc(C(F)(F)F)cc3)c3cccnc3)CC2)c(C(F)(F)F)n1 (stereo unspecified) | 53.4 | –
66 | 0.014 | 0.042 | Fc1ccc(N2CCC(NC(c3cccnc3)c3ccc(Cl)cc3F)CC2)cc1F (stereo unspecified) | 34.2 | –
67 | 0.0073 | 0.022 | COc1ccc(N2CCC(NC(c3cccnc3)c3ccc(Cl)cc3F)CC2)cc1F (stereo unspecified) | 47.9 | –

— ChEMBL document CHEMBL1862790, “Optimisation of fenarimol series for the treatment of Chagas disease”
